From patent US20190290656A1, “PT(IV) PRODRUGS” (YISSUM RESEARCH DEVELOPMENT COMPANY OF THE HEBREW …, priority 2015, published 2019)

Legend:
BxPC3 cells = assay: MTT cytotoxicity assay, BxPC3; type: cell-based, human; settings: BxPC3, 72 h exposure, MTT; read-out: IC50 (median growth inhibitory concentration)
A2780cisR cells = assay: MTT cytotoxicity assay, A2780cisR (cisplatin resistant); type: cell-based, human; settings: A2780cisR, 72 h exposure, MTT; read-out: IC50 (median growth inhibitory concentration)
Experimental: (§1) Platinum(IV) complexes were dissolved in DMSO to stock solutions of 1 mg/mL just before the experiment, and a calculated amount of drug solution was added to the cell growth medium to a final solvent concentration of 0.5%, which had no discernible effect on cell killing. Cisplatin (CDDP) and oxaliplatin (OXP) were dissolved just before the experiment in a 0.9% NaCl solution.
(§2) Human prostate adenocarcinoma (PC3) cells were obtained from European Collection of Cell Cultures (ECACC, Salisbury, UK). Human ovarian cancer cell lines A2780 and its cisplatin resistant variant, A2780cisR, were kindly provided by Prof.
(§3) Cancer Res. 1988, 48, 589-601]. […] Triplicate cultures were established for each treatment.

A549 cells = assay: MTT cytotoxicity assay, A549; type: cell-based, human; settings: A549, 72 h exposure, MTT; read-out: IC50 (median growth inhibitory concentration)
Experimental: Cisplatin (CDDP) and oxaliplatin (OXP) were dissolved just before the experiment in a 0.9% NaCl solution.
as §2
Triplicate cultures were established for each treatment.

A498 cells = assay: MTT cytotoxicity assay, A498; type: cell-based, human; settings: A498, 72 h exposure, read-out: IC50 (median growth inhibitory concentration)
Experimental: as §1, §2, §3

A2780 cells = assay: MTT cytotoxicity assay, A2780; type: cell-based, human; settings: A2780, 72 h exposure, MTT; read-out: IC50 (median growth inhibitory concentration)
Experimental: as §1, §2, §3

[1] = Reduction in buffer in the presence of ascorbic acid; type: physicochemical; settings: 1 Eq ascorbic acid, phosphate buffer, RT, 2 hours
Experimental: A solution 2.0 mM of 3a (Scheme 4) in buffer was treated with 1 Eq ascorbic acid. NMR measurements were performed over a 2 hour time frame.
In order to assay which of the two Pt metal centers of 3a is more prone to be reduced, we added 1 Eq of ascorbic acid to a solution of 3a in phosphate buffer. […] Finally, we carried out the reaction at RT and not at 37° C. to avoid a fast reduction process that would have made more complicated its study.
The reaction was monitored by ^1H NMR spectroscopy (FIG. 9). Already after 2 min, time needed to prepare the sample and start the NMR experiment, besides the signals belonging to 3a, previously discussed, it was possible to note the signal belonging to [Pt(DACH)(56Phen)]^2+, free phenyl butyric acid and a signal at 6.34 ppm, consistent with a DCA moiety coordinated to a Pt(IV) metal center. These signals indicated the reduction of the phenanthroline-bonded Pt unit of 3a to [Pt(DACH)(56Phen)]^2+, and the release of the axial ligands, […] and c,c,t-[Pt(NH3)2(DCA)(OOCCH2CH2CH2NHCOCH2CH2COOH)] (5). We were not able to isolate the latter species. […] The reaction was monitored for about 2 hours. In FIG. 9 are reported the spectra recorded after 9, 21 and 59 min. In the second hour, no changes were detected.

[2] = Cyclic voltammetric measurements; type: physicochemical; settings: cyclic voltammetry
Experimental: Finally, units 1a and 2a (Scheme 4) were used for the formation of a peptide bond, to afford 3a. DMSO turned out to be a good solvent for this reaction, although DMF also afforded good results. ^1H NMR assignments for 1a, 2a, and 3a (Scheme 4) are summarized in Table 4. Cylic voltammetric measurements (CV) were performed on complex 3a and 3b finding Ep values of −0.462 and −0.058 V. The first reduction peak was assigned to the reduction of the cisplatin-derivative portion of the dinuclear complex, because of similarity with the values reported for similar complexes. The less negative reduction peak was assigned to the Pt-Phenantroline metal center, because of similarity to the values reported for the bis axial phenylbutyrato Pt(IV) complex Pt56MeSS(PhB)2.

[3] = test system: six human cancer cell lines; assay: MTT cytotoxicity, over six human cancer cell lines; type: cell-based; settings: on average over tested cell lines
Experimental: MTT assay. […] Triplicate cultures were established for each treatment.
The two dimers, 3a and 3b, as well as compounds 1a and 2a were screened against six human cancer cell lines representative of lung (H157), colon (HCT-15), cervical (A431), ovarian (2008) and pancreatic (PSN1) cancers, along with melanoma (A375). Cytotoxicity was evaluated by means of the MTT test after 72 h of treatment and the in vitro antitumor potential of newly synthesized derivatives was compared to that of the reference metallo-drugs CDDP and OXP.

Row | Compound | IC50 (BxPC3 cells) [µM] | IC50 (A2780cisR cells) [µM] | IC50 (A549 cells) [µM] | IC50 (A498 cells) [µM] | IC50 (A2780 cells) [nM] | reduction by ascorbic acid (in words) [1] | Ep, first reduction peak (cisplatin-derivative portion) [2] [V] | Ep, less negative reduction peak (Pt-Phenantroline metal center) [2] [V] | times more potent than compound 3b [3]
1 | [NH2][Pt]([NH2])([Cl])[Cl] [CDDP, Cisplatin, reference compound] | 11.4 ± 1.14 | 13.8 ± 0.2 | 8.35 ± 0.87 | 17.5 ± 1.21 | 2800 ± 200 | – | – | – | –
2 | c,c,t,t,c,c-[(DACH)(56Phen)(PhBu)Pt(μ-OOC—(CH2)2—CONH(CH2)3COO)—Pt(DCA)(NH3)2 (Cl2)](TFA)2 [Compound 3a] | – | – | – | – | – | faster reduction of the phenanthroline-bonded Pt unit | −0.462 | −0.058 | about 12 fold
